The CheMixHub viscosity set

Assay: xn = mol fraction of the nth substance listed

COC(C)=O + OCCO
viscosity [mPa·s], 101.33 kPa
Settings	x2 = 0.1014	x2 = 0.1953	x2 = 0.2981	x2 = 0.3974	x2 = 0.5029	x2 = 0.5992	x2 = 0.6997	x2 = 0.799	x2 = 0.9639
298.15 K	0.543	0.645	0.829	–	1.85	2.329	3.499	5.578	9.086
303.15 K	0.507	0.599	0.756	1.008	1.633	2.026	3.025	4.658	7.673
308.15 K	0.473	0.561	0.701	0.921	1.439	1.781	2.643	3.989	6.317

CC(=O)OC(C)C(C)C (stereo unspecified) + C=CC#N
viscosity [mPa·s], 101.33 kPa
Settings	x2 = 0.096	x2 = 0.1903	x2 = 0.287	x2 = 0.3796	x2 = 0.4771	x2 = 0.582	x2 = 0.6783	x2 = 0.7861	x2 = 0.894
298.15 K	0.761	0.726	0.684	0.641	0.595	0.54	0.493	0.44	0.388
303.15 K	0.71	0.681	0.641	0.601	0.558	0.51	0.465	0.417	0.37
308.15 K	0.663	0.639	0.604	0.565	0.526	0.48	0.44	0.396	0.353

COC(C)=O + CCO
298.15 K, 101.33 kPa
Settings	viscosity [mPa·s]
x1 = 0.1146	0.833
x1 = 0.2045	0.695
x1 = 0.3207	0.574
x1 = 0.4245	0.506
x1 = 0.5004	0.467
x1 = 0.6077	0.438
x1 = 0.7989	0.399
x1 = 0.8802	0.39

COC(C)=O + CCC(C)O
298.15 K, 101.33 kPa
Settings	viscosity [mPa·s]
x1 = 0.1056	1.854
x1 = 0.2017	1.275
x1 = 0.3076	0.921
x1 = 0.3884	0.771
x1 = 0.4935	0.64
x1 = 0.5697	0.559
x1 = 0.6653	0.485
x1 = 0.7801	0.429
x1 = 0.876	0.411

CC(=O)C(=O)O + CC(C)[C@@H]1CC[C@@H](C)C[C@H]1O
100 kPa, x2 = 0.67
Settings	viscosity [mPa·s]
293.15 K	44.64
298.15 K	29.95
303.15 K	21.24
308.15 K	15.67
313.15 K	11.88
318.15 K	9.36
323.15 K	7.511

COCCOC + CCCCCCCO
101 kPa
Settings	viscosity [mPa·s]
293.15 K, x1 = 0.04689	5.696
293.15 K, x1 = 0.1108	4.364
293.15 K, x1 = 0.1958	3.168
293.15 K, x1 = 0.2906	2.308
293.15 K, x1 = 0.402	1.645
293.15 K, x1 = 0.4906	1.283
293.15 K, x1 = 0.6674	0.843
293.15 K, x1 = 0.7068	0.768
293.15 K, x1 = 0.8006	0.631
293.15 K, x1 = 0.894	0.525
293.15 K, x1 = 0.948	0.477
303.15 K, x1 = 0.03301	4.403
303.15 K, x1 = 0.1088	3.286
303.15 K, x1 = 0.1924	2.49
303.15 K, x1 = 0.2936	1.802
303.15 K, x1 = 0.4015	1.325
303.15 K, x1 = 0.4903	1.066
303.15 K, x1 = 0.594	0.842
303.15 K, x1 = 0.7001	0.671
303.15 K, x1 = 0.8062	0.542
303.15 K, x1 = 0.8901	0.467
303.15 K, x1 = 0.9469	0.425
313.15 K, x1 = 0.04399	3.176
313.15 K, x1 = 0.1188	2.473
313.15 K, x1 = 0.1968	1.933
313.15 K, x1 = 0.2941	1.478
313.15 K, x1 = 0.404	1.121
313.15 K, x1 = 0.4883	0.918
313.15 K, x1 = 0.6006	0.717
313.15 K, x1 = 0.6962	0.591
313.15 K, x1 = 0.8094	0.482
313.15 K, x1 = 0.9	0.41
313.15 K, x1 = 0.9404	0.386

c1ccc2ncccc2c1 + Oc1ccccc1
Settings	viscosity [mPa·s]
293.25 K, 101 kPa, x2 = 0.101	4.595
293.25 K, 101 kPa, x2 = 0.1895	5.725
293.25 K, 101 kPa, x2 = 0.2876	7.85
293.25 K, 101 kPa, x2 = 0.3677	10.58
293.25 K, 101 kPa, x2 = 0.4518	15.03
293.25 K, 101 kPa, x2 = 0.5297	20.31
293.25 K, 101 kPa, x2 = 0.6094	24.52
293.25 K, 101 kPa, x2 = 0.6758	25.29
293.25 K, 101 kPa, x2 = 0.7465	23.27
293.25 K, 101 kPa, x2 = 0.8203	19.41
293.25 K, 101 kPa, x2 = 0.8731	16.6
293.25 K, 101 kPa, x2 = 0.9409	13.37
298 K, 101.3 kPa, x1 = 0.1054	12.7
298 K, 101.3 kPa, x1 = 0.1999	17.29
298 K, 101.3 kPa, x1 = 0.3001	20.99
298 K, 101.3 kPa, x1 = 0.4004	19.77
298 K, 101.3 kPa, x1 = 0.4996	14.31
298 K, 101.3 kPa, x1 = 0.5998	10.23
298 K, 101.3 kPa, x1 = 0.6997	7.295
298 K, 101.3 kPa, x1 = 0.7997	5.58
298 K, 101.3 kPa, x1 = 0.9023	4.054
303 K, 101.3 kPa, x1 = 0.1054	10.2
303 K, 101.3 kPa, x1 = 0.1999	13.09
303 K, 101.3 kPa, x1 = 0.3001	15.72
303 K, 101.3 kPa, x1 = 0.4004	14.98
303 K, 101.3 kPa, x1 = 0.4996	11.03
303 K, 101.3 kPa, x1 = 0.5998	8.24
303 K, 101.3 kPa, x1 = 0.6997	6.11
303 K, 101.3 kPa, x1 = 0.7997	4.797
303 K, 101.3 kPa, x1 = 0.9023	3.537
303.05 K, 101 kPa, x2 = 0.104	3.645
303.05 K, 101 kPa, x2 = 0.194	4.495
303.05 K, 101 kPa, x2 = 0.2786	5.605
303.05 K, 101 kPa, x2 = 0.3683	7.425
303.05 K, 101 kPa, x2 = 0.4478	9.65
303.05 K, 101 kPa, x2 = 0.5251	12.21
303.05 K, 101 kPa, x2 = 0.6009	14.36
303.05 K, 101 kPa, x2 = 0.672	14.8
303.05 K, 101 kPa, x2 = 0.744	13.44
303.05 K, 101 kPa, x2 = 0.8109	11.77
303.05 K, 101 kPa, x2 = 0.8741	10.1
303.05 K, 101 kPa, x2 = 0.9388	8.44
308 K, 101.3 kPa, x1 = 0.1054	8.195
308 K, 101.3 kPa, x1 = 0.1999	10.47
308 K, 101.3 kPa, x1 = 0.3001	12.4
308 K, 101.3 kPa, x1 = 0.4004	11.87
308 K, 101.3 kPa, x1 = 0.4996	8.92
308 K, 101.3 kPa, x1 = 0.5998	6.902
308 K, 101.3 kPa, x1 = 0.6997	5.266
308 K, 101.3 kPa, x1 = 0.7997	4.143
308 K, 101.3 kPa, x1 = 0.9023	3.095
313 K, 101.3 kPa, x1 = 0.1054	6.728
313 K, 101.3 kPa, x1 = 0.1999	8.655
313 K, 101.3 kPa, x1 = 0.3001	10.08
313 K, 101.3 kPa, x1 = 0.4004	9.694
313 K, 101.3 kPa, x1 = 0.4996	7.31
313 K, 101.3 kPa, x1 = 0.5998	5.796
313 K, 101.3 kPa, x1 = 0.6997	4.553
313 K, 101.3 kPa, x1 = 0.7997	3.608
313 K, 101.3 kPa, x1 = 0.9023	2.718
313.15 K, 101 kPa, x2 = 0.104	2.885
313.15 K, 101 kPa, x2 = 0.194	3.455
313.15 K, 101 kPa, x2 = 0.2786	4.195
313.15 K, 101 kPa, x2 = 0.3683	5.335
313.15 K, 101 kPa, x2 = 0.4478	6.6
313.15 K, 101 kPa, x2 = 0.5251	7.95
313.15 K, 101 kPa, x2 = 0.6009	8.87
313.15 K, 101 kPa, x2 = 0.672	9.04
313.15 K, 101 kPa, x2 = 0.744	8.39
313.15 K, 101 kPa, x2 = 0.8109	7.48
313.15 K, 101 kPa, x2 = 0.8741	6.56
313.15 K, 101 kPa, x2 = 0.9388	5.525
318 K, 101.3 kPa, x1 = 0.1054	5.655
318 K, 101.3 kPa, x1 = 0.1999	7.159
318 K, 101.3 kPa, x1 = 0.3001	8.328
318 K, 101.3 kPa, x1 = 0.4004	8.054
318 K, 101.3 kPa, x1 = 0.4996	5.886
318 K, 101.3 kPa, x1 = 0.5998	4.902
318 K, 101.3 kPa, x1 = 0.6997	3.996
318 K, 101.3 kPa, x1 = 0.7997	3.172
318 K, 101.3 kPa, x1 = 0.9023	2.416
